Test results: PMC8324038 (ACS infectious diseases, 2021)
In brackets after ≈: the same amount, converted by molar mass.

Key:
[1] = target: T1, purified PenA1 β-lactamase (Burkholderia multivorans, UniProt A0A0H3KN52); test: Steady-state inhibition kinetics, Ki-app, purified enzyme; assay type: biochemical; details: read-out: Km nitrocefin, used for correction of Ki-app
T1 sequence (A0A0H3KN52 28-302): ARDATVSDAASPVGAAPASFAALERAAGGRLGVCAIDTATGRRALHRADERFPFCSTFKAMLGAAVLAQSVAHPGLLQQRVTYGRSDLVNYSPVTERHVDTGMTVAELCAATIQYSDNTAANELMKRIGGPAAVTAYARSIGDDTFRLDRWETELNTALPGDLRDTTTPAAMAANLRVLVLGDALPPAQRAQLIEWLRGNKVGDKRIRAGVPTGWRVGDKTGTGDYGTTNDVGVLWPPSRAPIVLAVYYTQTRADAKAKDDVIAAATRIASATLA

[2] = test system: E. coli DH10B pBC SK(+) empty; test: MIC susceptibility testing, empty vector control; details: Escherichia coli
[3] = target: T1, purified PenA1 β-lactamase; test: Acylation rate k2/K; assay type: biochemical; details: acylation rate (kinact/KI or k2/K), nitrocefin 100 μM reporter

Row | Compound | k2/K [3] | further results
1 | O=C(Cc1cccs1)N[C@@H]1C(=O)N2C(C(=O)O)=C(/C=C/c3ccc([N+](=O)[O-])cc3[N+](=O)[O-])CS[C@H]12 [nitrocefin] |  | Km [1]: 147 µM
2 | CCN1CCN(C(=O)N[C@@H](C(=O)N[C@@H]2C(=O)N3[C@@H]2SC(C)(C)[C@@H]3C(=O)O)c2ccccc2)C(=O)C1=O [Piperacillin] |  | MIC [2]: 2 µg/mL (≈ 3.86 µM)
3 | Cn1cc[n+](C[C@@]2(C)[C@H](C(=O)[O-])N3C(=O)C[C@H]3S2(=O)=O)n1 [enmetazobactam] | 6.3 ± 2.0 × 10^5 M^−1 s^−1 | 
4 | O=C(O)[C@H]1/C(=C/CO)O[C@@H]2CC(=O)N21 [clavulanic acid] | 340 to 2e+06 M⁻¹ s⁻¹ | 
